Assay results reported in patent US9580390B2, “Indazole compounds as kinase inhibitors and method of treating cancer with same” (University Health Network, priority 2011, dated 2017).

Tests used:
[1] = test system: colon cancer cells (HCT116); experiment: Cancer cell line growth inhibition (SRB assay); format: cell-based; conditions: Homo sapiens, HCT-116; read-out: Cancer Cell Line GI50 Range HCT116
[2] = target: T1, human TTK (Homo sapiens, UniProt P33981); experiment: TTK inhibition assay (indirect ELISA); format: biochemical; conditions: read-out: TTK IC50 Range
T1 construct: amino terminal GST fusion of full length human TTK; purchased Invitrogen
T1 sequence (P33981 1-857): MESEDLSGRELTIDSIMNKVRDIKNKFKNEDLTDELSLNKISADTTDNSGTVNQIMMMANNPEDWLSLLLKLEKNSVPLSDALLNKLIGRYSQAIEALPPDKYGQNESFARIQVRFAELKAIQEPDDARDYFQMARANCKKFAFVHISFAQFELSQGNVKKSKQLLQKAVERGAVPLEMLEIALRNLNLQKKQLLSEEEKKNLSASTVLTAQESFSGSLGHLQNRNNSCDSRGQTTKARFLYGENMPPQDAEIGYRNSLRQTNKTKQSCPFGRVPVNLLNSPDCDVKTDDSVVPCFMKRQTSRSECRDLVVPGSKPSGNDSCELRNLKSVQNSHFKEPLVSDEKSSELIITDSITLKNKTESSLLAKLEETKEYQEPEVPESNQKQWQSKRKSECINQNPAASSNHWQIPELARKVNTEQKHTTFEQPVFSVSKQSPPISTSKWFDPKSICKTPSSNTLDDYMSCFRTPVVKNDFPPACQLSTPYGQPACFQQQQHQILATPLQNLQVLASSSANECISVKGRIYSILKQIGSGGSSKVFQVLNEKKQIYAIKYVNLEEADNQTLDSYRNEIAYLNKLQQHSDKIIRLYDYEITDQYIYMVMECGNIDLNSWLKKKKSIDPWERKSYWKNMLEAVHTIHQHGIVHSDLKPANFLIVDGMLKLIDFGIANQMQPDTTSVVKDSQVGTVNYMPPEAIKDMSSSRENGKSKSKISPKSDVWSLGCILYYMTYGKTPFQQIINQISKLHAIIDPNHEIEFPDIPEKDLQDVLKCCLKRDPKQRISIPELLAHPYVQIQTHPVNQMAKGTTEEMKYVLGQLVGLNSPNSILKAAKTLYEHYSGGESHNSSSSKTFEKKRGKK

[3] = test system: ovarian cancer cells (PA-1); experiment: Cancer cell line growth inhibition (SRB assay); format: cell-based; conditions: Homo sapiens, PA-1; read-out: Cancer Cell Line GI50 Range PA-1

| Structure (SMILES) | GI50 [1] | IC50 [2] | GI50 [3] |
| --- | --- | --- | --- |
| CC(C)(O)CN1CCC(Oc2ccc(-c3n[nH]c4ccc(C(=O)N[C@H](c5ccccn5)C5CCCC5)cc34)cc2)CC1 [Example A231, (S)-N-(cyclopentyl(pyridin-2-yl)methyl)-3-(4-((1-(2-hydroxy-2-methylpropyl)piperidin-4-yl)oxy)phenyl)-1H-indazole-5-carboxamide] | < 100 nM | < 100 nM | < 100 nM |
| CC(C)[C@H](NC(=O)c1ccc2[nH]nc(-c3ccc(OC4CCN(CCO)CC4)cc3)c2c1)c1ccccc1Cl [Example A232, (S)-N-(1-(2-chlorophenyl)-2-methylpropyl)-3-(4-((1-(2-hydroxyethyl)piperidin-4-yl)oxy)phenyl)-1H-indazole-5-carboxamide] | < 100 nM | < 100 nM | < 100 nM |
| O=C(N[C@H](c1ccccn1)C1CCCC1)c1ccc2[nH]nc(-c3ccc(OC4CCN(CCO)CC4)cc3)c2c1 [Example A233, (S)-N-(cyclopentyl(pyridin-2-yl)methyl)-3-(4-((1-(2-hydroxyethyl)piperidin-4-yl)oxy)phenyl)-1H-indazole-5-carboxamide] | < 100 nM | < 100 nM | < 100 nM |
| CC(C)CC(NC(=O)c1ccc2[nH]nc(-c3ccc(OC4CCN(C5COC5)CC4)cc3)c2c1)c1ccccc1 (stereo not drawn) [Example A290, N-(3-methyl-1-phenylbutyl)-3-(4-((1-(oxetan-3-yl)piperidin-4-yl)oxy)phenyl)-1H-indazole-5-carboxamide] | 100 to 500 nM | < 100 nM | 100 to 500 nM |
| CC(C)CC(NC(=O)c1ccc2[nH]nc(-c3ccc(OC4CCN(C5COC5)CC4)cc3)c2c1)c1ccccn1 (stereo not drawn) [Example A291, N-(3-methyl-1-(pyridin-2-yl)butyl)-3-(4-((1-(oxetan-3-yl)piperidin-4-yl)oxy)phenyl)-1H-indazole-5-carboxamide] | < 100 nM | < 100 nM | < 100 nM |
| O=C(NC(c1ccccn1)C1CCOCC1)c1ccc2[nH]nc(-c3ccc(OC4CCN(C5COC5)CC4)cc3)c2c1 (stereo not drawn) [Example A293, 3-(4-((1-(oxetan-3-yl)piperidin-4-yl)oxy)phenyl)-N-(pyridin-2-yl(tetrahydro-2H-pyran-4-yl)methyl)-1H-indazole-5-carboxamide] | 100 to 500 nM | < 100 nM | 100 to 500 nM |
| CC(C)[C@H](NC(=O)c1ccc2[nH]nc(-c3ccc(OC4CCN(C5COC5)CC4)nc3)c2c1)c1ccccc1Cl [Example A294, (S)-N-(1-(2-chlorophenyl)-2-methylpropyl)-3-(6-((1-(oxetan-3-yl)piperidin-4-yl)oxy)pyridin-3-yl)-1H-indazole-5-carboxamide] | 100 to 500 nM | < 100 nM | 100 to 500 nM |
| O=C(NC(c1ccccn1)C1CCCC1)c1ccc2[nH]nc(-c3ccc(OC4CCN(C5COC5)CC4)cc3)c2c1 (stereo not drawn) [Example A319, N-(cyclopentyl(pyridin-2-yl)methyl)-3-(4-((1-(oxetan-3-yl)piperidin-4-yl)oxy)phenyl)-1H-indazole-5-carboxamide] | 100 to 500 nM | < 100 nM | < 100 nM |
| CC(C)C(NC(=O)c1ccc2[nH]nc(-c3ccc(OC4CCN(C5COC5)CC4)cc3)c2c1)c1ccccn1 (stereo not drawn) [Example A327, N-(2-methyl-1-(pyridin-2-yl)propyl)-3-(4-((1-(oxetan-3-yl)piperidin-4-yl)oxy)phenyl)-1H-indazole-5-carboxamide] | < 100 nM | < 100 nM | < 100 nM |
| O=CN1CCC(Oc2ccc(-c3n[nH]c4ccc(C(=O)NC(c5ccsc5)C5CCC5)cc34)cc2)CC1 (stereo not drawn) [Example A330, N-(cyclobutyl(thiophen-3-yl)methyl)-3-(4-((1-formylpiperidin-4-yl)oxy)phenyl)-1H-indazole-5-carboxamide] | < 100 nM | < 100 nM | < 100 nM |
| CC(C)(O)C1CCN(c2ccc(-c3n[nH]c4ccc(C(=O)N[C@H](c5ccccn5)C5CC5)cc34)cc2)CC1 [Example A351, (S)-N-(cyclopropyl(pyridin-2-yl)methyl)-3-(4-(4-(2-hydroxypropan-2-yl)piperidin-1-yl)phenyl)-1H-indazole-5-carboxamide] | < 100 nM | < 100 nM | < 100 nM |
| O=C(N[C@@H](c1ccccn1)C1CC1)c1ccc2[nH]nc(-c3ccc(OC4CC5CCC(C4)N5C4COC4)cc3)c2c1 (stereo partly drawn) [Example A352, N-((R)-cyclopropyl(pyridin-2-yl)methyl)-3-(4-(((1R,3R,5S)-8-(oxetan-3-yl)-8-azabicyclo[3.2.1]octan-3-yl)oxy)phenyl)-1H-indazole-5-carboxamide] | 100 to 500 nM | < 100 nM | 100 to 500 nM |
| O=CN1C2CCC1CC(Oc1ccc(-c3n[nH]c4ccc(C(=O)N[C@@H](c5ccccn5)C5CC5)cc34)cc1)C2 (stereo partly drawn) [Example A353, N-((R)-cyclopropyl(pyridin-2-yl)methyl)-3-(4-(((1R,3R,5S)-8-formyl-8-azabicyclo[3.2.1]octan-3-yl)oxy)phenyl)-1H-indazole-5-carboxamide] | < 100 nM | < 100 nM | < 100 nM |
| C[C@H](O)C(=O)N1CCC(Oc2ccc(-c3n[nH]c4ccc(C(=O)N[C@H](c5ccccc5)C5CC5)cc34)cc2)CC1 [Example A377, N-((S)-cyclopropyl(phenyl)methyl)-3-(4-((1-((S)-2-hydroxypropanoyl)piperidin-4-yl)oxy)phenyl)-1H-indazole-5-carboxamide] | 100 to 500 nM | < 100 nM | 100 to 500 nM |
| CC(C)(O)C(=O)N1CCC(Oc2ccc(-c3n[nH]c4ccc(C(=O)N[C@H](c5ccccc5)C5CC5)cc34)cc2)CC1 [Example A381, (S)-N-(cyclopropyl(phenyl)methyl)-3-(4-((1-(2-hydroxy-2-methylpropanoyl)piperidin-4-yl)oxy)phenyl)-1H-indazole-5-carboxamide] | 100 to 500 nM | < 100 nM | 100 to 500 nM |
| O=C(N[C@H](c1ccccc1)C1CC1)c1ccc2[nH]nc(-c3ccc(OC4CCN(C(=O)CO)CC4)cc3)c2c1 [Example A382, (S)-N-(cyclopropyl(phenyl)methyl)-3-(4-((1-(2-hydroxyacetyl)piperidin-4-yl)oxy)phenyl)-1H-indazole-5-carboxamide] | < 100 nM | < 100 nM | < 100 nM |
| O=C(NC(c1ccccn1)C1CC1)c1ccc2[nH]nc(-c3ccc(N4CCOCC4)cc3)c2c1 (stereo not drawn) [Example A383, N-(cyclopropyl(pyridin-2-yl)methyl)-3-(4-morpholinophenyl)-1H-indazole-5-carboxamide] | 100 to 500 nM | < 100 nM | 100 to 500 nM |
| O=C(NC(c1ccccn1)C1CC1)c1ccc2[nH]nc(-c3ccc(N4CCN(CCO)CC4)cc3)c2c1 (stereo not drawn) [Example A384, N-(cyclopropyl(pyridin-2-yl)methyl)-3-(4-(4-(2-hydroxyethyl)piperazin-1-yl)phenyl)-1H-indazole-5-carboxamide] | 100 to 500 nM | < 100 nM | 100 to 500 nM |
| CN1C2COCC1CC(Oc1ccc(-c3n[nH]c4ccc(C(=O)N[C@H](c5ccccn5)C5CC5)cc34)cc1)C2 (stereo partly drawn) [Example A389, N-((S)-cyclopropyl(pyridin-2-yl)methyl)-3-(4-(((1R,5S,7s)-9-methyl-3-oxa-9-azabicyclo[3.3.1]nonan-7-yl)oxy)phenyl)-1H-indazole-5-carboxamide] | < 100 nM | < 100 nM | < 100 nM |
